In PubChem BioAssay (NCI):
“And” between values parts separate entries of the source, which are not always exact repeats. Equal entries are not always repeated.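 Following 48 hours of exposure in 96-well plates, responses at five concentrations were used to interpolate endpoints linearly. GI50 = concentration required for 50% inhibition of growth. At the TGI there is no net growth.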

Columns and labels:
Assay in all cases: growth of human tumour cells (NCI), 48 h
[1] = test system: SW-620 colon
[2] = test system: NCI-H460 lung
[3] = test system: MALME-3M melanoma
[4] = test system: MOLT-4 leukemia
[5] = test system: LOX IMVI melanoma
[6] = test system: UACC-62 melanoma
[7] = test system: MDA-MB-231 breast
[8] = test system: SF-539 CNS
[9] = test system: ACHN renal
[10] = test system: NCI/ADR-RES ovarian

Structure (SMILES)	TGI [1] [µM]	TGI [2]	TGI [3] [µM]	TGI [4] [µM]	TGI [5] [µM]	TGI [6] [µM]	TGI [7] [µM]	TGI [8]	TGI [9] [µM]	TGI [10]	GI50 [1] [µM]	GI50 [2] [µM]	GI50 [3] [µM]	GI50 [4] [µM]	GI50 [5] [µM]	GI50 [8] [µM]	GI50 [9] [µM]	GI50 [6] [µM]	GI50 [7] [µM]	GI50 [10] [µM]
O=[N+]([O-])c1cc(C(F)(F)F)cc2n[se]nc12	3.11	26.6 µM	3.57	> 45.2	14.4	15	5.84	7.33 µM	5.89	5.11 µM										
O=C1NC(c2cccc3ccccc23)Nc2ccccc21 (centres undefined)	> 56.6	0.73 µM and 4.89 µM	43.7		> 96.7	> 100	3.03	0.0329 µM and 0.165 µM	> 54.7	0.0707 µM and 0.0715 µM	0.0203	0.0405	0.0263	0.0443	0.0389	0.0105	0.0383			
O=C(Nc1cccc(-n2ccc3c(NC(=O)c4ccccc4)nccc32)c1)c1ccc(Cl)c(Cl)c1	1.48	1.08 µM	2.27		1.57	1.63	1.34	0.952 µM	1.71	0.38 µM	0.106	0.158	0.242	0.634	0.219	0.197	0.177	0.0535	0.302	0.0865
COc1ccc2[nH]cc(C3(c4c[nH]c5ccc(OC)cc45)C(=O)Nc4ccc(Cl)cc43)c2c1	49.4	10.1 µM	46.5	21.1	5.33	> 100	5.43	> 100 µM	21.9	> 100 µM	3.89	3.18	5.02	4.12	2.16	4.39	3.71	3.61	2.08	9.98
COc1ccc(C(=O)/C=C/c2c(C(F)(F)F)nc3ccccn23)cc1OC	> 100	2.99 µM	> 100	3.24		> 100	8.55		> 39.5	6.25 µM	0.527	0.933	13.8	0.711	0.584	2.14	2.6		3.06	0.877
COc1ccc(Cl)cc1Nc1nc(C(F)(F)F)ccc1C(=O)N/N=C/c1ccccc1Cl	> 100	4.53 µM	9.54		12.8	9.83	10.9	5.03 µM	> 25.4	> 28.4 µM	3.3	1.13	1.75	1.88	1.64	1.85	2.01	1.93	2.09	2.83
CCc1nc(N)nc(N)c1-c1ccc(N(C)Cc2ccccc2)c([N+](=O)[O-])c1	26.5	8.72 µM	17.1	8.11	22.2	13	36.1	9.97 µM	36.1	21.4 µM										
CN(C)C[C@@H]1CCn2cc(c3ccccc32)C2=C(C(=O)NC2=O)c2cn(c3ccccc23)CCO1	4.28	5.73 µM	5.01	5.59	3.44	> 10	9.49	2.45 µM	> 10	> 10 µM	0.467	1.48	1.17	1.95	1.63	1.08	2.04	0.792	1.68	2.58
CCN(CC)CCNc1ccc(N=Nc2cnc3ccccc3c2)c2ccccc12	3.47	3.18 µM		3.03	2.77	3.21	2.38	3.07 µM	3.15	5.15 µM	1.83	1.72		1.56	1.43	1.67	1.61	1.7	1.12	2.29
CN(C)c1ccc2cc3c(cc2c1)Oc1ccccc1N3.[Cl][Zn][Cl]		52.2 µM	9.6	16.2	3.22	13.4	4.51	15.6 µM	3.22	83.3 µM		20.1	3.04	3.1	1.6	3.68	1.64	3.43	1.83	16.8
COc1cc(C(=O)c2cnc(-c3ccc4cc[nH]c4c3)[nH]2)cc(OC)c1OC	21.7	11.5 µM	9.89	15.6	1.98	13.8	1.44	0.0623 µM	6.11	56 µM	0.0398	0.0376	1.61	0.0597	0.105	0.0214	0.0973	0.0244	0.0609	0.0371
COc1ccc2[nH]cc(Cc3c[nH]c4ccc(OC)cc34)c2c1	32.2	63.8 µM		> 100	28.1	29.5	19.4	33.1 µM	43.9	42.1 µM	18.3	22.7		37.4	14.9	17.2	20	16	4.65	20.4
CN(C)c1ccc(/C=N/n2c(CCCCc3n[nH]c(=S)n3/N=C/c3ccc(N(C)C)cc3)n[nH]c2=S)cc1	> 100	> 100 µM	> 100	> 100	> 100	> 100	> 100	> 100 µM	> 100	> 100 µM	> 100	> 100	> 100	> 100	> 100	> 100	> 100	> 100	41.3	> 100
CCOP(=O)(OCC)C(NC(c1ccccc1)c1ccccc1)c1ccsc1 (centres undefined)	61.5	53.7 µM		> 100		25.5	20.5	43.1 µM		29.7 µM	29.2	18.7		25.4		24		12.8	7.05	14.4
